Source: paper PMC10025185, “A continuous in silico learning strategy to identify safety liabilities in compounds used in the leather and textile industry” (Archives of Toxicology, 2023)
Where two headings read alike, the source gives them in different places.

Columns and labels:
[1] = test system: androgen and oestrogen receptors; test: ED assays of androgen and oestrogen receptors (overall experimental ED result); format: cell-based
Protocol: The transcriptional activation of androgen receptor (AR) assays was carried out by adapting the OECD protocol 458 (OECD [2020]).
MDA-MB-453 cells (8000 cells/well) expressing an AR luciferase reporter were seeded into 384 white plates (Greiner 781098) in culture medium (DMEM (ATCC), 10% foetal bovine serum (Sigma Aldrich), 1% penicillin–streptomycin (Sigma-Aldrich), 75 µg/ml geneticin (Gibco) and incubated overnight at 37 °C 5% CO2 and 95% humidity. After this time, the cell culture medium was discarded and replaced by assay medium (DMEM (ATCC), 0.1% foetal bovine serum (Sigma-Aldrich), and 1% penicillin–streptomycin (Sigma Aldrich)).
For studying a putative agonist effect, compounds were added to the assay plate using an Echo 550 acoustic liquid handler and incubated overnight at 37 °C 5% CO2 and 95% humidity. For studying the putative antagonist effect, compounds were added using an Echo 550 acoustic liquid handler and incubated for 15 min at 37 °C 5% CO2 and 95% humidity. Then, 1 nM 5α-dihydrotestosterone (DHT) was added, and the cell plate was incubated overnight at 37 °C, 5% CO2, and 95% humidity. After compound incubation, the cell medium was removed, 5 µl of lysis buffer 1X (Promega) was added, and the cell plate was incubated with agitation 15 min at room temperature. A freeze–thaw cycle of 10 min at −80 °C and room temperature was performed. Then 25 µl of luciferase assay reagent (Promega) was added and luminescence was determined on an EnSpire plate reader (Perkin Elmer). Data was fitted to a four-parameter sigmoidal model with Prism 5.1 (Graphpad, Inc).
The transcriptional activation of oestrogen receptor (ER) assay was carried out by adapting the OECD protocol 455 (OECD [2021]) and the method of Li et al. ([2013]).
ER luciferase reporter T47D cells (5000 cells/well) were seeded into 384 white plates (Greiner 781098) in culture medium (RPMI 1640 (Thermo Fisher Scientific 52400), 10% foetal bovine serum (Sigma Aldrich F9665), 1% penicillin–streptomycin (Sigma-Aldrich P0781), 75 µg/ml Geneticin (Gibco 10131)) and incubated overnight at 37 °C and 5% CO2. The following day, the cell culture medium was discarded and replaced by assay medium (RPMI 1640 (Thermo Fisher Scientific 52,400), 0.1% foetal bovine serum (Sigma Aldrich F9665), and 1% penicillin–streptomycin (Sigma Aldrich P0781).
The assay was performed as stated before for the AR assay using 17β-estradiol as agonist instead of DHT.
ED was assessed by transactivation in vitro assays to identify agonists and antagonists of the androgen and oestrogen receptors.
Also, the experimental group analysed the endocrine-disrupting activity for the CMR compounds.

zebrafish embryos = test system: zebrafish embryos
Protocol: Zebrafish embryos obtained and maintained as described previously for toxicity determination were used to determine (I) terato-carcinogenesis assayed as previously informed (Selderslaghs et al. [2009], [2012]) with modifications. In brief, embryos were incubated for 0 hpf up to 120 hpf in the presence and absence of tested compounds. Each condition was assayed in triplicate with 12 embryos per condition per replicate. The appearance of selected characteristics and malformations with respect to normal development were quantified for the eyes, otoliths, heart, circulation, hatching, skeletal deformities, and body position. For each concentration tested, we assessed the mortality and the presence of malformations at 24, 48, 72, 96, and 120 hpf using a light microscope. When possible, the lethal effects (LC50) and terato-carcinogenic effects (EC50) were determined using the ToxRat software. Based on these values, a teratogenic index (TI) was calculated as LC50/EC50. Based on previous studies, we considered a compound to be a teratogen when TI > 2 at 120 hpf. When no TI could be calculated due to no malformations induction to a degree extensive enough to calculate the EC50 in the presence of high toxicity, the compound was considered a non-teratogen. (II) Neurotoxicity was assayed by evaluating the locomotor activity in embryos exposed to the tested compounds from 0 to 120 hpf using Zebrabox and Zebralab (ViewPoint). We tested three concentrations (24 embryos per concentration) below the NOEC to avoid readily toxic concentrations. After incubation with tested compounds for 120 hs in 96-well plates, the activity of larvae in response to transitions from dark to light was evaluated. The protocol involved an initial 10 min acclimation period inside the Zebrabox, followed by three cycles of light–dark of 10 min each. After the end of each cycle, the integrated activity of each embryo was registered. Statistical analysis was done using ANOVA, followed by the Tukey post hoc test. Differences were considered significant when p < 0.05. Dead embryos were not considered in the analysis. (III) The endocrine-disrupting effect in zebrafish embryos was assayed by real-time PCR as previously reported (Jarque et al. [2019]) with modifications. In brief, 0 hpf embryos (12 embryos per condition in triplicate) were incubated with selected compounds for up to 120 hpf. After incubation, treated (embryos incubated at the concentration right below the NOEC) and control embryos were collected in RNA later and kept at − 20°C until use. RNA was extracted from the samples using the RNeasy Mini Kit (QIAGEN) and was followed by cDNA synthesis using random primers and the AffinityScript Multi Temperature cDNA Synthesis Kit (Agilent Technologies). Finally, real-time PCR was performed for eight target genes to obtain data on the estrogenic (cytochrome P450 family 19 subfamily A member 1: cyp19a1b, and vitellogenin: vtg1), androgenic (cytochrome P450 family 2 […]: cyp2k22, and cytosolic sulphotransferase 3: sult2st3), and thyroid hormone (thyroid peroxidase: tpo, thyroid hormone receptor alpha: tra, transthyretin: ttr, and iodothyronine deiodinase 2: dio2) effect of the tested compounds. Significant changes in gene expression between controls and treated samples were considered as a potential endocrine-disrupting effect.

[2] = real-time PCR, zebrafish embryos
[3] = second of two columns headed Neurotoxic

Row | Compound | Experimental result [1] | Reprotoxicity (R) Neurotoxic (zebrafish embryos; in vivo) | induction of cytochrome P450 2 K (zebrafish embryos; [2]) | induction of vitellogenin (zebrafish embryos; [2]) | Reprotoxicity (R) Endocrine disruptor (zebrafish embryos; in vivo) | Experimental result ([1]; endocrine disruptor yes/no) | Reprotoxicity (R) Neurotoxic (zebrafish embryos; [3]) | Reprotoxicity (R) Endocrine disruptor (zebrafish embryos; gene expression, 120 hpf, concentration right below NOEC)
1 | CCCCC(CC)CN (stereo not shown) [2-Ethylhexylamine] | Yes | No | induced | induced | – | – | – | –
2 | CNC(=O)c1cc(Cl)ccn1.Cl [4-Chloro-N-methylpyridine-2-carboxamide hydrochloride (1:1)] | No | No | – | – | No | – | – | –
3 | CCN(CC)c1ccc(N=Nc2c(Cl)cc([N+](=O)[O-])cc2[N+](=O)[O-])c(NC(C)=O)c1 [N-[2-[(2-chloro-4,6-dinitrophenyl)azo]-5-(diethylamino)phenyl]acetamide] | – | – | induced | – | – | Yes | No | –
4 | O=C(OCCc1ccccc1)c1ccccc1 [Phenethyl benzoate] | No | No | – | – | No | – | – | –
5 | Reaction mass of cis-4-(isopropyl) cyclohexanemethanol and trans-4-(isopropyl) cyclohexanemethanol | – | – | – | – | – | No | No | No
